Assay [1] deals with human iPS cells (1231A3 strain). Nature of the assay: Neural tissue / neuroepithelium formation in cell aggregates, bright field observation. The assay is classed as cell-based. The following applies: for cell aggregate growth and neuroepithelium formation: step 1 for 1 day: SB431542 5 μM or LDN193189 100 nM, both U-bottom plate and F-bottom culture dish, day 19. The method, then:
The above human iPS cells were treated with the cell dispersion solution by using TrypLE Select (Life Technologies), further dispersed into single cells by pipetting operation, and the above human iPS cells dispersed into single cells were suspended in 100 μl of a serum-free medium at 1.2×10^4 cells per well of a non-cell-adhesive 96-well culture plate ([…], manufactured by SUMITOMO BAKELITE), and subjected to suspension culturing at 37° C., 5% CO2. As the serum-free medium (gfCDM+KSR) therefor, a serum-free medium which is a 1:1 mixture of F-12 medium and IMDM medium supplemented with 10% KSR, 450 μM 1-monothioglycerol, 1× Chemically defined lipid concentrate was used. At the time of the start of suspension culturing (day 0 after the start of suspension culturing, start of step 2), Y27632 (final concentration 20 μM) was added to the above serum-free medium. By day 2 after the start of suspension culturing, cell aggregates were formed under both conditions with preconditioning and conditions without preconditioning (step 2 completed, step 3 start). On day 3 after the start of suspension culturing, a serum-free medium (50 μl) free of Y27632 was added. On day 6 or later after the start of suspension culturing, a half amount of the medium was changed to the above serum-free medium free of Y27632 once per 2-4 days. In the half-medium change operation, a half volume, namely 75 μl, of the medium in the culture vessel was discarded, the above fresh serum-free medium (75 μl) was added to make the total medium amount 150 μl. […]
At the time of the start of suspension culturing (day 0 after the start of suspension culturing, start of step 2), the cells were cultured under the following 2 conditions including condition 1 and condition 2. As condition 1(+SAG), at the time of the start of suspension culturing, Y27632 (final concentration 20 μM) and SAG (Shh signal transduction pathway activating substance, 300 nM) were added to the above serum-free medium. As condition 2(−SAG), at the time of the start of suspension culturing, Y27632 (final concentration 20 μM) was added to the above serum-free medium and SAG was not added. By day 2 after the start of suspension culturing, cell aggregates were formed (step 2 completed, step 3 start) under both conditions. On day 3 after the start of suspension culturing, a medium (50 μl) free of Y27632, SAG and containing human recombinant BMP4 (manufactured by R&D) was added such that the final concentration of exogenous human recombinant BMP4 was 1.5 nM (55 ng/ml). On day 6 after the start of suspension culturing, a half amount of the medium was changed with a serum-free medium free of Y27632, SAG and human recombinant BMP4. Thereafter, a half amount of the medium was changed, once every 2-4 days, with the above serum-free medium free of Y27632, SAG, and human recombinant BMP4.
The thus-prepared cells were subjected to bright field observation on day 18 after the start of suspension culturing under an inverted microscope (KEYENCE) (FIG. 15).
At the time of the start of suspension culturing (day 0 after the start of suspension culturing, start of step 2), the cells were cultured under the following 2 conditions including condition 1 and condition 2. As condition 1(+SAG), at the time of the start of suspension culturing, Y27632 (final concentration 20 μM) and SAG (Shh signal transduction pathway activating substance, final concentration 30 nM) were added to the above serum-free medium. As condition 2(−SAG), at the time of the start of suspension culturing, Y27632 (final concentration 20 μM) was added to the above serum-free medium and SAG was not added. By day 2 after the start of suspension culturing, cell aggregates were formed under both conditions (step 2 completed, step 3 start). […]

Assay [2] shares this test system. The assay can be described thus: Bright field observation of feeder-free cultured human iPS cells after preconditioning. The assay is classed as cell-based. The protocol:
As a specific example of preconditioning in step 1 of the production method of the present invention, the following operation was performed. First, the subconfluent human iPS cells (1231A3 strain) were washed with PBS, and dispersed into single cells by using TrypLE Select (manufactured by Life Technologies). Thereafter, the above human iPS cells dispersed into single cells were seeded in a plastic culture dish (manufactured by Iwaki) coated with Laminin 511-E8, […] (ROCK inhibiting substance, 10 μM). When a 6-well plate (manufactured by Iwaki, culture area 9.4 cm^2) was used as the above plastic culture dish, the number of plated cells for the above human iPS cells dispersed into single cells was set to 6×10^3. When a 60 mm dish (manufactured by Iwaki, culture area 21 cm^2) was used as the above plastic culture dish, the number of plated cells for the above human iPS cells dispersed into single cells was set to 13×10^3. One day after seeding, the medium was changed to StemFit medium free of Y27632. Thereafter, once in 1-2 days, the medium was changed to StemFit medium free of Y27632. Thereafter, the cells were cultured until 5 days after seeding, namely, one day before subconfluence (50% of culture area is covered with cells). Even when cultured for 6 days after seeding, similar results are shown. The human iPS cells one day before subconfluence in the above feeder-free culturing were subjected to feeder-free culturing in the presence of SB431542 (TGFβR inhibitor (TGFβRi), 5 μM) (step 1: preconditioning treatment, FIG. 1 “Precondition TGFβRi 24 hr”), or in the absence thereof (step 1: without precondition treatment, FIG. 1 “Control”) for 1 day. The bright field observation of cultured cells was performed under an inverted microscope (KEYENCE). […] As a preconditioning operation, subconfluent human iPS cells (1231A3 strain) were first washed with PBS, and dispersed into single cells by using TrypLE Select (manufactured by Life Technologies). […]

The mark [3] stands for this setting: step 1 for 1 day: SB431542 5 μM, LDN193189 100 nM or SAG 300 nM, SAG 300 nM in step 2, with or without BMP4 1.5 nM in step 3, day 23.
Where [4] appears, read: 1 day in Essential 8 medium, SB431542 5 μM, LDN193189 100 nM, or both.
[5] abbreviates: LDN193189 100 nM 1 day in step 1, day 23.

The text below walks through data of US12492373B2, “Production method for nerve tissue” (Racthera Co., Ltd., priority 2014, dated 2025).

Consider `NC(=O)c1ccc(-c2nc(-c3ccc4c(c3)OCO4)c(-c3ccccn3)[nH]2)cc1` [SB431542, 4-(5-benzol[1,3]dioxol-5-yl-4-pyridin-2-yl-1H-imidazol-2-yl)-benzamide], for which, in assay [1] (SAG 300 nM in step 2), the “cell aggregate growth and neuroepithelium formation” value was “a cell aggregate grew and neuroepithelium was formed”. For the same compound, the “cell aggregate and neural tissue formation” value in assay [1] (setting [3]) is reported as “a neural tissue can be formed efficiently”. The “morphology of human iPS cell” value in assay [2] (setting [4]) and in assay [2] (SB431542 5 μM for 1 day during feeder-free culturing in StemFit medium) was “not largely influenced” each time.

Take `CNC1CCC(N(Cc2cccc(-c3ccncc3)c2)C(=O)c2sc3ccccc3c2Cl)CC1` (centres unmarked) [SAG]: the “cell aggregate and neural tissue formation” value in assay [1] (step 1: SAG 300 nM for 24-144 hr, co-presence of A83-01 0.5 μM for the last 24 hr, SAG 30 nM added or not in step 2, day 16) was “a neural tissue could be formed efficiently”; in assay [1] (step 1: SAG 300 nM for 48 or 72 hr, or A83-01 0.5 μM and SAG 300 nM for 24, 48 or 72 hr, SAG 30 nM added or not added in step 2, BMP4 1.5 nM on day 3, day 17) it was “a neural tissue can be formed efficiently”; in assay [1] (setting [3]) it was “a neural tissue can be formed efficiently”.

With `c1ccc2c(-c3cnn4cc(-c5ccc(N6CCNCC6)cc5)cnc34)ccnc2c1` [LDN193189, 4-[6-(4-piperazin-1-ylphenyl)pyrazolo[1,5-a]pyrimidin-3-yl]quinoline], in assay [1] (setting [5]), the “cell aggregate containing a neural tissue (maintained, neural tissue not less than 10%)” value is listed as “about 100%”; the “cell aggregate with a bad form (collapsed, neural tissue not more than 3%)” value is “about 0%”; the “cell aggregate with a medium level form (maintained, neural tissue not more than 10%)” value is listed as “about 0%”; the “neural tissue formation in step 3” value is on record as “a neural tissue having a neuroepithelial structure was formed”. Also, the “cell aggregate growth and neuroepithelium formation” value in assay [1] (SAG 300 nM in step 2) is “a cell aggregate grew and neuroepithelium was formed”. Moreover, the “cell aggregate and neural tissue formation” value in assay [1] (setting [3]) is recorded as “a neural tissue can be formed efficiently”. Further, in assay [2] (setting [4]), the “morphology of human iPS cell” value is listed as “not largely influenced”.
